# Measured values from patent US10626112B2, “Heterocyclic sulfonamide derivative and medicine comprising same” (EA PHARMA CO., LTD., priority 2014, dated 2020).
# Biological target: human TRPA1 (Homo sapiens (Human), UniProt O75762)
# Assay: Measurement of TRPA1 antagonist activity (1): intracellular calcium increase
# Type: cell-based
# Conditions: 293T cells transfected with human TRPA1 expression plasmid; allylisothiocyanate 20 μM stimulation; intracellular calcium fluorescence; read-out: hTRPA1 IC50
# Method in brief: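 HEK293T cells transiently transfected with full-length human TRPA1, loaded with Calcium4 dye in HBSS/20 mM HEPES pH 7.2. Test compound preincubated 10 min, then allylisothiocyanate added at 20 μM final and fluorescence change followed for 5 min. IC50 from sigmoid fit of percent inhibition relative to agonist and buffer controls.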
# Chain of human TRPA1 (O75762 whole entry): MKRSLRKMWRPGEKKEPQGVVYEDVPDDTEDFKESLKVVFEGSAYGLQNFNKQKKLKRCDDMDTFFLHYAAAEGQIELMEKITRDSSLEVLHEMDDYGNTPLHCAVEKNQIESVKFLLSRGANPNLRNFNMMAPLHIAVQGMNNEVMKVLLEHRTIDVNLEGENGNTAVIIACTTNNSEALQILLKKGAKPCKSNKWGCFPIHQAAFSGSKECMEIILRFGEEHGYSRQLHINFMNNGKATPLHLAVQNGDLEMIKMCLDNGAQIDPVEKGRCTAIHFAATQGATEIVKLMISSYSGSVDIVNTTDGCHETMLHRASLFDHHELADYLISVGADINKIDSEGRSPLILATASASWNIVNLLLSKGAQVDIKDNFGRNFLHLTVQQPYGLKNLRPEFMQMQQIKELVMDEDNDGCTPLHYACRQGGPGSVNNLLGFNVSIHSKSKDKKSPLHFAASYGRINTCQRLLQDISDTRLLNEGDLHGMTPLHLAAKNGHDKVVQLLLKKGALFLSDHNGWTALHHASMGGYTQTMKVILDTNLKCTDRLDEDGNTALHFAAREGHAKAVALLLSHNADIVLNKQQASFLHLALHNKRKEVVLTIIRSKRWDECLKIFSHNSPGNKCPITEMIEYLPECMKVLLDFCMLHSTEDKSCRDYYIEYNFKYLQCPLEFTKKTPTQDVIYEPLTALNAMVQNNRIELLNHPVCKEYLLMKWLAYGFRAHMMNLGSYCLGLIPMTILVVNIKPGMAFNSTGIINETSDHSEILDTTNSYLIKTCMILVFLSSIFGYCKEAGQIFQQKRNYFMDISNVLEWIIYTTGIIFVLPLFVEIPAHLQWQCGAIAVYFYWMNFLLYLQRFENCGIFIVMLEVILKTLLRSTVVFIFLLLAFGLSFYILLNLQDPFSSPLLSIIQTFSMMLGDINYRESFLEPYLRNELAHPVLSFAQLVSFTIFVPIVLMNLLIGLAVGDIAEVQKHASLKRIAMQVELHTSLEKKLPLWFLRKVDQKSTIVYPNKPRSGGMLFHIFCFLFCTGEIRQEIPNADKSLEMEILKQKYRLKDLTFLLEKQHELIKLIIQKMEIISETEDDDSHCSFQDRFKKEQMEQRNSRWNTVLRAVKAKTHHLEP
row,IC50,Compound
1,69 nM,"C[C@H](NS(=O)(=O)c1cc2ccccc2o1)C(=O)NCc1ccnc(-c2ccc(C(F)(F)F)cc2O)c1 [Example 180, (2S)-2-(benzofuran-2-ylsulfonylamino)-N-[[2-[2-hydroxy-4-(trifluoromethyl)phenyl]-4-pyridyl]methyl]propanamide]"
2,21 nM,"C[C@H](NS(=O)(=O)c1cc2cc(F)ccc2o1)C(=O)NCc1ccnc(-c2ccc(C(F)(F)F)cc2O)c1 [Example 181, (2S)-2-[(5-fluorobenzofuran-2-yl)sulfonylamino]-N-[[2-[2-hydroxy-4-(trifluoromethyl)phenyl]-4-pyridyl]methyl]propanamide]"
3,94 nM,"C[C@H](NS(=O)(=O)c1cc2ccccc2o1)C(=O)NCc1cccc(OCc2ccc(C#N)cc2)c1 [Example 182, (2S)-2-(benzofuran-2-ylsulfonylamino)-N-[[3-[(4-cyanophenyl)methoxy]phenyl]methyl]propanamide]"
4,570 nM,"C[C@H](NS(=O)(=O)c1cc2ccccc2o1)C(=O)NCc1cccc(OCC2CCOCC2)c1 [Example 183, (2S)-2-(benzofuran-2-ylsulfonylamino)-N-[[3-(tetrahydropyran-4-ylmethoxy)phenyl]methyl]propanamide]"
5,41 nM,"C[C@H](NS(=O)(=O)c1cc2cc(F)ccc2o1)C(=O)NCc1cccc(OCc2ccc(C#N)cc2)c1 [Example 184, (2S)-N-[[3-[(4-cyanophenyl)methoxy]phenyl]methyl]-2-[(5-fluorobenzofuran-2-yl)sulfonylamino]propanamide]"
6,250 nM,"C[C@H](NS(=O)(=O)c1cc2cc(F)ccc2o1)C(=O)NCc1cccc(OCC2CCOCC2)c1 [Example 185, (2S)-2-[(5-fluorobenzofuran-2-yl)sulfonylamino]-N-[[3-(tetrahydropyran-4-ylmethoxy)phenyl]methyl]propanamide]"
7,86 nM,"O=C(NCc1ccnc(NCc2ccc(C(F)(F)F)cc2)c1)[C@@H]1CCCN1S(=O)(=O)c1cc2ccccc2o1 [Example 186, (2S)-1-(benzofuran-2-ylsulfonyl)-N-[[2-[[4-(trifluoromethyl)phenyl]methylamino]-4-pyridyl]methyl]pyrrolidine-2-carboxamide]"
8,71 nM,"O=C(NCc1cccc(OCc2ccc(C(F)(F)F)cc2)c1)[C@@H]1CC=CCN1S(=O)(=O)c1cc2ccccc2o1 [Example 187, (2S)-1-(benzofuran-2-ylsulfonyl)-N-[[3-[[4-(trifluoromethyl)phenyl]methoxy]phenyl]methyl]-3,6-dihydro-2H-pyridine-2-carboxamide]"
9,890 nM,"O=C(NCc1cccc([S+]([O-])Cc2ccccc2)c1)[C@@H]1CCCN1S(=O)(=O)c1cc2ccccc2o1 (stereo partly drawn) [Example 188, (2S)-1-(benzofuran-2-ylsulfonyl)-N-[(3-benzylsulfinylphenyl)methyl]pyrrolidine-2-carboxamide]"
10,5.2 nM,"C[C@H](NS(=O)(=O)c1cc2cc(F)ccc2o1)C(=O)NCc1cc(-c2ccc(OC(F)(F)F)cc2)ncn1 [Example 190, (2S)-2-[(5-fluorobenzofuran-2-yl)sulfonylamino]-N-[[6-[4-(trifluoromethoxy)phenyl]pyrimidin-4-yl]methyl]propanamide]"
11,22 nM,"O=C(NCc1cc(-c2ncc(C(F)(F)F)cn2)ccn1)[C@@H]1CCCN1S(=O)(=O)c1cc2ccccc2o1 [Example 192, (2S)-1-(benzofuran-2-ylsulfonyl)-N-[[4-[5-(trifluoromethyl)pyrimidin-2-yl]-2-pyridyl]methyl]pyrrolidine-2-carboxamide]"
12,2.2 nM,"O=C(NCc1ccc(O)c(-c2ccc(C(F)(F)F)cn2)c1)[C@@H]1CCCN1S(=O)(=O)c1cc2ccccc2o1 [Example 193, (2S)-1-(benzofuran-2-ylsulfonyl)-N-[[4-hydroxy-3-[5-(trifluoromethyl)-2-pyridyl]phenyl]methyl]pyrrolidine-2-carboxamide]"
13,10 nM,"O=C(NCc1cccc(-c2ncc(C(F)(F)F)cn2)c1)[C@@H]1CCCN1S(=O)(=O)c1cc2ccccc2o1 [Example 194, (2S)-1-(benzofuran-2-ylsulfonyl)-N-[[3-[5-(trifluoromethyl)pyrimidin-2-yl]phenyl]-methyl]pyrrolidine-2-carboxamide]"
14,2.5 nM,"O=C(NCc1cccc(-c2cnc(C(F)(F)F)nc2)c1)[C@@H]1CCCN1S(=O)(=O)c1cc2ccccc2o1 [Example 195, (2S)-1-(benzofuran-2-ylsulfonyl)-N-[[3-[2-(trifluoromethyl)pyrimidin-5-yl]phenyl]-methyl]pyrrolidine-2-carboxamide]"
15,2.9 nM,"O=C(NCc1cccc(-c2cnc(C(F)(F)F)cn2)c1)[C@@H]1CCCN1S(=O)(=O)c1cc2ccccc2o1 [Example 196, (2S)-1-(benzofuran-2-ylsulfonyl)-N-[[3-[5-(trifluoromethyl)pyrazin-2-yl]phenyl]methyl]-pyrrolidine-2-carboxamide]"
16,3 nM,"O=C(NCc1cccc(-c2ccc(C(F)(F)F)nn2)c1)[C@@H]1CCCN1S(=O)(=O)c1cc2ccccc2o1 [Example 197, (2S)-1-(benzofuran-2-ylsulfonyl)-N-[[3-[6-(trifluoromethyl)pyridazin-3-yl]phenyl]methyl]-pyrrolidine-2-carboxamide]"
17,13 nM,"O=C(NCc1ccnc(-c2ccc(Cl)cc2)c1)[C@@H]1CCCN1S(=O)(=O)c1cc2ccccc2o1 [Example 198, (2S)-1-(benzofuran-2-ylsulfonyl)-N-[[2-(4-chlorophenyl)-4-pyridyl]methyl]pyrrolidine-2-carboxamide]"
18,5 nM,"O=C(NCc1ccnc(-c2cnc(C(F)(F)F)nc2)c1)[C@@H]1CCCN1S(=O)(=O)c1cc2ccccc2o1 [Example 199, (2S)-1-(benzofuran-2-ylsulfonyl)-N-[[2-[2-(trifluoromethyl)pyrimidin-5-yl]-4-pyridyl]methyl]pyrrolidine-2-carboxamide]"
19,16 nM,"O=C(NCc1cc(-c2cnc(C(F)(F)F)nc2)ccn1)[C@@H]1CCCN1S(=O)(=O)c1cc2ccccc2o1 [Example 200, (2S)-1-(benzofuran-2-ylsulfonyl)-N-[[4-[2-(trifluoromethyl)pyrimidin-5-yl]-2-pyridyl]methyl]pyrrolidine-2-carboxamide]"
20,8.6 nM,"O=C(NCc1cc(-c2cnc(C(F)(F)F)cn2)ccn1)[C@@H]1CCCN1S(=O)(=O)c1cc2ccccc2o1 [Example 201, (2S)-1-(benzofuran-2-ylsulfonyl)-N-[[4-[5-(trifluoromethyl)pyrazin-2-yl]-2-pyridyl]methyl]pyrrolidine-2-carboxamide]"
21,4.3 nM,"O=C(NCc1cc(-c2ccc(C(F)(F)F)nn2)ccn1)[C@@H]1CCCN1S(=O)(=O)c1cc2ccccc2o1 [Example 202, (2S)-1-(benzofuran-2-ylsulfonyl)-N-[[4-[6-(trifluoromethyl)pyridazin-3-yl]-2-pyridyl]methyl]pyrrolidine-2-carboxamide]"
22,3.2 nM,"O=C(NCc1cc(-c2ccc(OC(F)(F)F)cc2)ncn1)[C@@H]1CCCN1S(=O)(=O)c1cc2ccccc2o1 [Example 203, (2S)-1-(benzofuran-2-ylsulfonyl)-N-[[6-[4-(trifluoromethoxy)phenyl]-pyrimidin-4-yl]methyl]pyrrolidine-2-carboxamide]"
23,35 nM,"O=C(NCc1ccnc(-c2ccc(OCC(F)(F)F)cc2)c1)[C@@H]1CCCN1S(=O)(=O)c1cc2ccccc2o1 [Example 204, (2S)-1-(benzofuran-2-ylsulfonyl)-N-[[2-[4-(2,2,2-trifluoroethoxy)phenyl]-4-pyridyl]methyl]pyrrolidine-2-carboxamide]"
24,4 nM,"O=C(NCc1cc(-c2ccc(C(F)(F)F)nc2)ncn1)[C@@H]1CCCN1S(=O)(=O)c1cc2ccccc2o1 [Example 205, (2S)-1-(benzofuran-2-ylsulfonyl)-N-[[6-[6-(trifluoromethyl)-3-pyridyl]pyrimidin-4-yl]methyl]pyrrolidine-2-carboxamide]"
25,12 nM,"O=C(NCc1cc(-c2ccc(C(F)(F)F)cn2)ncn1)[C@@H]1CCCN1S(=O)(=O)c1cc2ccccc2o1 [Example 206, (2S)-1-(benzofuran-2-ylsulfonyl)-N-[[6-[5-(trifluoromethyl)-2-pyridyl]pyrimidin-4-yl]methyl]pyrrolidine-2-carboxamide]"
26,4 nM,"O=C(NCc1cc(-c2cnc(C(F)(F)F)nc2)ncn1)[C@@H]1CCCN1S(=O)(=O)c1cc2ccccc2o1 [Example 207, (2S)-1-(benzofuran-2-ylsulfonyl)-N-[[6-[2-(trifluoromethyl)pyrimidin-5-yl]pyrimidin-4-yl]methyl]pyrrolidine-2-carboxamide]"
27,34 nM,"O=C(NCc1cnnc(-c2ccc(C(F)(F)F)cc2)c1)[C@@H]1CCCN1S(=O)(=O)c1cc2ccccc2o1 [Example 208, (2S)-1-(benzofuran-2-ylsulfonyl)-N-[[6-[4-(trifluoromethyl)phenyl]-pyridazin-4-yl]methyl]pyrrolidine-2-carboxamide]"
28,110 nM,"O=C(NCc1cnnc(-c2ccc(C(F)(F)F)nc2)c1)[C@@H]1CCCN1S(=O)(=O)c1cc2ccccc2o1 [Example 209, (2S)-1-(benzofuran-2-ylsulfonyl)-N-[[6-[6-(trifluoromethyl)-3-pyridyl]pyridazin-4-yl]methyl]pyrrolidine-2-carboxamide]"
29,19 nM,"O=C(NCc1cc(-c2ccc(C(F)(F)F)cc2)cnn1)[C@@H]1CCCN1S(=O)(=O)c1cc2ccccc2o1 [Example 210, (2S)-1-(benzofuran-2-ylsulfonyl)-N-[[5-[4-(trifluoromethyl)phenyl]-pyridazin-3-yl]methyl]pyrrolidine-2-carboxamide]"

row,Compound,IC50
1,"CC(C)(C)OC[C@H](NS(=O)(=O)c1cc2cc(F)ccc2o1)C(=O)NCc1cccc(-c2ccc(C(F)(F)F)nc2)c1 [Example 189, (2S)-3-tert-butoxy-2-[(5-fluorobenzofuran-2-yl)sulfonylamino]-N-[[3-[6-trifluoromethyl-3-pyridyl]phenyl]methyl]propanamide]",840 nM
